In patent publication US20250108032A1, “METHODS OF TREATING TYPE 1 DIABETES AND KIDNEY DISEASE” (LEXICON PHARMACEUTICALS, INC., priority 2023, published 2025):

Columns and labels:
T1D patients = conditions: cited from earlier work
[1] = tested on: patients with type 1 diabetes receiving insulin therapy (overall and CKD cohorts); test: inTandem3 phase 3, double-blind trial, sotagliflozin 400 mg per day vs placebo for 24 weeks; type: in vivo, human; conditions: for placebo-adjusted systolic blood pressure, least-squared mean change: after 16 weeks; for DKA, HR (95% CI) / Severe hypoglycemia, HR (95% CI): 400 mg/day vs placebo
Description: The in Tandem3 study was a phase 3, double-blind trial conducted at 133 centers worldwide. In the study, 1402 patients with type 1 diabetes who were receiving treatment with insulin therapy (pump or injections) were randomly assigned to receive sotagliflozin (400 mg per day) or placebo for 24 weeks. The primary end point was a glycated hemoglobin level lower than 7.0% at week 24 with no episodes of severe hypoglycemia or diabetic ketoacidosis after randomization. Secondary end points included the change from baseline in glycated hemoglobin level, weight, systolic blood pressure, and mean daily bolus dose of insulin. Specific details of the study were reported in Garg, S. K., et al., “Effects of Sotagliflozin Added to Insulin in Patients with Type 1 Diabetes” N. Engl. J. Med. 2017:377:2337-48.
The rate of severe hypoglycemia was similar in the sotagliflozin group and the placebo group (3.0% [21 patients] and 2.4% [17 patients], respectively). […] The rate of DKA was higher in the sotagliflozin group than in the placebo group (3.0% [21 patients] and 0.6%, respectively). Id. at 2337.
For this invention, data from CKD patients were compared to those of the overall cohort. As shown below, 16% of patients had CKD at baseline: […]

[2] = 400 mg per day, overall population
[3] = 400 mg/day, CKD Cohort N = 115, 24 weeks

## CCOc1ccc(Cc2cc([C@@H]3O[C@H](SC)[C@@H](O)[C@H](O)[C@H]3O)ccc2Cl)cc1 [sotagliflozin, (2S,3R,4R,5S,6R)-2-(4-chloro-3-(4-ethoxybenzyl)phenyl)-6-(methylthio)tetrahydro-2H-pyran-3,4,5-triol]
T1D patients
  albuminuria: reduction in albuminuria
  blood pressure: lowered blood pressure
  eGFR: acute change in eGFR
  hemoconcentration: induced mild hemoconcentration
  risk of diabetic ketoacidosis (DKA): increased
[1]; 400 mg per day, CKD group, SE=1.81
  placebo-adjusted systolic blood pressure, least-squared mean change: −7.1 mm Hg
[1]; 400 mg per day, CKD group, after 24 weeks, SE=0.120
  placebo-adjusted change in HbA1C, least-squared mean: −0.46%
[1]; 400 mg per day, CKD group, after 24 weeks, SE=0.464
  placebo-adjusted change in body weight, least-squared mean: -2.82 kg
[1]; 400 mg per day, of 699 patients
  number of patients achieving the primary end point: 200 patients
[1]; [2]
  mean daily bolus dose of insulin, least-squares mean change from baseline, difference vs placebo: −2.8 units per day
  proportion of patients achieving the primary end point (glycated hemoglobin lower than 7.0% at week 24 with no severe hypoglycemia or DKA): 28.6%
  systolic blood pressure, least-squares mean change from baseline, difference vs placebo: −3.5 mm Hg
[1]; 400 mg per day, overall population, 24 weeks
  glycated hemoglobin, least-squares mean change from baseline, difference vs placebo: −0.46 percentage points
[1]; 400 mg per day, total, overall population, SE=0.57
  placebo-adjusted systolic blood pressure, least-squared mean change: −3.8 mm Hg
[1]; 400 mg per day, total, overall population, after 24 weeks
  placebo-adjusted change in body weight, least-squares mean: -2.98 kg
[1]; 400 mg per day, total, overall population, after 24 weeks, SE=0.042
  placebo-adjusted change in HbA1C, least-squared mean: −0.46%
[1]; CKD Cohort, 24 weeks
  DKA, HR (95% CI): 3.5
  Severe hypoglycemia, HR (95% CI): 1.7
[1]; Overall Cohort, 24 weeks
  DKA, HR (95% CI): 5.5
  Severe hypoglycemia, HR (95% CI): 1.3
[1]; [3]
  DKA, %: (2.6) %
  Severe hypoglycemia, %: (7.0) %
[1]; sotagliflozin group vs placebo group
  rate of documented hypoglycemia with a blood glucose level of 55 mg per deciliter (3.1 mmol per liter) or below: significantly lower
